Measured values as given in patent EP4759807A1, “PROTEOLYSIS TARGETING CHIMERA COMPOUND FOR DEGRADING IRAK4 AND USE THEREOF” (Shenzhen Zhongge Biological Technology Co., Ltd., priority 2023, dated 2025).

Target: T1, hERG ion channel (Homo sapiens, UniProt Q12809)
T1 construct: host or cells: HEK293
Test: Inhibitory effect on hERG ion channels (manual patch clamp)
Type: cell-based
Conditions: HEK293 cells stably expressing hERG channels, read-out: hERG (IC50, manupatch)
Description: In this experiment, the inhibitory effect of the compound on the hERG ion channel was detected by a manual patch clamp electrophysiological method, and the cardiac safety was evaluated based on the single concentration inhibition rate or IC50 of the compound.
The cells used in this experiment were HEK293 cell lines transfected with hERG cDNA and stably expressing hERG channels (#60187, provided by BPS, P3-P23 generations were used for experimental research). The cells was cultured in a medium containing the following components: MEM medium, 10% (v/v) inactivated fetal bovine serum, 1 mM sodium pyruvate, 500 µg geneticin, 0.1 mM non-essential amino acids, 100 U penicillin-streptomycin. HEK293 hERG cells were grown in a culture flask containing the above culture solution and cultured in an incubator at 37°C and 5% CO2. […]
A manual patch clamp system (HEKA EPC-10 signal amplifier and digital conversion system, purchased from HEKA Electronics, Germany) was used to record whole-cell currents in electrophysiological experiments. […] After the hERG current recorded in the above steps reached stabilization under the continuous perfusion of extracellular solution in the recording chamber, different concentrations of the compound to be tested could be perfused until the inhibitory effect of the drug on the hERG current reached a stable state. […]

T1 sequence (Q12809 whole entry): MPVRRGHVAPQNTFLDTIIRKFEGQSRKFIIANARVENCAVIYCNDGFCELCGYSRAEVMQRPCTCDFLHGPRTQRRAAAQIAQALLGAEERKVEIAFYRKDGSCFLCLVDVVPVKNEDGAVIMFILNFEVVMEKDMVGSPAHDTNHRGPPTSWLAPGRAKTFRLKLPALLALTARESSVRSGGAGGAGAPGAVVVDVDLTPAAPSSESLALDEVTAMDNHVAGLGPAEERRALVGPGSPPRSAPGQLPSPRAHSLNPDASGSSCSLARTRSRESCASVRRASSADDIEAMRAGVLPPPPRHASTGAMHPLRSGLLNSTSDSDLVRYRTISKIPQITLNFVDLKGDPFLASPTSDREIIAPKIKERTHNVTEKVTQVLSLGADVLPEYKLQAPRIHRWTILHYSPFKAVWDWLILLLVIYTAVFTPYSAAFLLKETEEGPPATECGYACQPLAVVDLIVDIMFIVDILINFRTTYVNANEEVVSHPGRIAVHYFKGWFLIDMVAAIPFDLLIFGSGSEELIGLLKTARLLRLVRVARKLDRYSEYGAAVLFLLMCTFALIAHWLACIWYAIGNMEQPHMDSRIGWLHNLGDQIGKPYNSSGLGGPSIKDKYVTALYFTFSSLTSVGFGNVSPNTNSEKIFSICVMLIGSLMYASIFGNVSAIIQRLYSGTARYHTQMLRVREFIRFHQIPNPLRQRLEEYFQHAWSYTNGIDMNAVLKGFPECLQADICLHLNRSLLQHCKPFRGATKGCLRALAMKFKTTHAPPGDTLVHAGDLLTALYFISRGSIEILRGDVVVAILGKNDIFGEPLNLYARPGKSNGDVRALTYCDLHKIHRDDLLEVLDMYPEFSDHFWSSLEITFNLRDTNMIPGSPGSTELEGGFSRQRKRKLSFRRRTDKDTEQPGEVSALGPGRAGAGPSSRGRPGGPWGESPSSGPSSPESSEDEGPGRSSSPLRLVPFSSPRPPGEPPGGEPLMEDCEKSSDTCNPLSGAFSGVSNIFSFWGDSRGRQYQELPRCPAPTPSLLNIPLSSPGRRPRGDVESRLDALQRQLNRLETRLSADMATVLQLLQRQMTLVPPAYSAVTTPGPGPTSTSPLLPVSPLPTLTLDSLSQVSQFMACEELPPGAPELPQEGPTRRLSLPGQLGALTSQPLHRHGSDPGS

Cn1c(=O)n(C2CCC(=O)NC2=O)c2cccc(N3CCC(N4CCN(C[C@H]5CC[C@H](n6cc(-n7cc(-c8cnn9ccc(N%10CCC[C@H](O)C%10)nc89)nn7)c(C(F)F)n6)CC5)CC4)CC3)c21 (stereo partly shown) [Example 146]
IC50: 7.06 µM
